From ChEMBL document CHEMBL1155460, “Prediction of acetylcholinesterase inhibitors and characterization of correlative molecular descriptors by machine learning methods” (Eur J Med Chem, 2010)

Molecular target: Acetylcholinesterase (Homo sapiens, UniProt P22303)
Sequence (P22303 whole entry): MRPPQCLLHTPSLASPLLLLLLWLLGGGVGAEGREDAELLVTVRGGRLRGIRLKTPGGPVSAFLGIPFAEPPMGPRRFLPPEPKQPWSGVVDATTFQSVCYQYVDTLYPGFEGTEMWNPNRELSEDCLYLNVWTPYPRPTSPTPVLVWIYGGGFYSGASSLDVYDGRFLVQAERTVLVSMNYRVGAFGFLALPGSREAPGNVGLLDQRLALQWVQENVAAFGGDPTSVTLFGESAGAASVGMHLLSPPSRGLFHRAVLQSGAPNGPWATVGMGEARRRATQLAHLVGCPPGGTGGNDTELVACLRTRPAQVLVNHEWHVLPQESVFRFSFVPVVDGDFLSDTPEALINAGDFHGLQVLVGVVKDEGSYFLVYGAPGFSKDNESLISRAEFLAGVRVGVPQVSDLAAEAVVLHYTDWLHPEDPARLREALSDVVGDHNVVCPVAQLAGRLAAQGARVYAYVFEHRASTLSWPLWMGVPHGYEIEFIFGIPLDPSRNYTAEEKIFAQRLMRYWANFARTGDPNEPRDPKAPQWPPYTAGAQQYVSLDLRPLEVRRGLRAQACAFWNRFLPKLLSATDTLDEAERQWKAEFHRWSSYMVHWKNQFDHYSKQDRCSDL

Row | SMILES | IC50
1 | CCCCCCNC(=O)Oc1cccc(CN(CC)CCCOc2ccc3c(=O)c4ccccc4oc3c2)c1 | 0.16 µM
2 | FC(F)(F)c1cc(-c2ccccc2)nnc1NCCN1CCOCC1 | 740 µM
3 | Nc1cc(-c2ccccc2)nnc1NCCN1CCOCC1 | 270 µM
4 | c1ccc(-c2ccc(NCCCCCN3Cc4ccccc4CN3)nn2)cc1 | 10 µM
5 | CN(CCCNc1ccc(-c2ccccc2)nn1)Cc1ccccc1 | 13 µM
6 | CN(CCCCCNc1ccc(-c2ccccc2)nn1)Cc1ccccc1 | 0.74 µM
7 | O=C1CNc2cc3onc(CCC4CCN(Cc5ccccc5)CC4)c3cc2C1 | 0.00048 µM
8 | CCCCCCNC(=O)Oc1cccc(CN(C)CCCCOc2ccc3c(=O)c4ccccc4oc3c2)c1 | 0.1 µM
9 | CCCCCCNC(=O)Oc1cccc(CN(C)CCCCCOc2ccc3c(=O)c4ccccc4oc3c2)c1 | 0.1 µM
10 | OCc1cc(-c2ccccc2)nnc1NCCN1CCOCC1 | 440 µM
11 | CCCCCCNC(=O)Oc1cccc(CN(CCC)CCCOc2ccc3c(=O)c4ccccc4oc3c2)c1 | 0.4 µM
12 | CCCCCCNC(=O)Oc1cccc(CN(CCCOc2ccc3c(=O)c4ccccc4oc3c2)C(C)C)c1 | 0.17 µM
13 | CCCCCCNC(=O)Oc1cccc(CN(C)CCCOc2ccc3c(=O)c4cccnc4oc3c2)c1 | 0.042 µM
14 | CCCCNC(=O)Oc1cccc(CN(C)CCCOc2ccc3c(=O)ccoc3c2)c1 | 0.25 µM
15 | c1ccc(-c2ccc(NCCCN3CCc4ccccc4C3)nn2)cc1 | 35 µM
16 | CN(CCCCNc1ccc(-c2ccccc2)nn1)Cc1ccccc1 | 11 µM
17 | CCCCCCNC(=O)Oc1cccc(CN(C)CCCOc2ccc3c(=O)cc(-c4ccccc4)oc3c2)c1 | 0.068 µM
18 | CCCCCCNC(=O)Oc1cccc(CN(C)CCCOc2ccc3ccc(=O)oc3c2)c1 | 0.013 µM
19 | Cc1cc(-c2ccccc2)nnc1NCCN1CCCCC1 | 5.4 µM
20 | Cc1cc(-c2ccc(Cl)cc2)nnc1NCCN1CCCCC1 | 1.3 µM
21 | Cc1cc(-c2ccc3c(c2)OCO3)nnc1NCCN1CCCCC1 | 1 µM
22 | CCCCCCNC(=O)Oc1cccc(CN(C)CCCOc2ccc3c(=O)ccoc3c2)c1 | 0.021 µM
23 | CCN1CCCC1CNc1ccc(-c2ccccc2)nn1 (stereo unspecified) | 62 µM

Row | SMILES | IC50
24 | c1ccc(-c2ccc(NCCN3CCc4ccccc4C3)nn2)cc1 | 83 µM
25 | c1ccc(-c2ccc(NCCCN3CCOCC3)nn2)cc1 | 410 µM
26 | CN(CCNc1ccc(-c2ccccc2)nn1)Cc1ccccc1 | 170 µM
27 | Nc1cccc2c1C(=O)N(CCC1CCN(Cc3ccccc3)CC1)C2=O | 0.011 µM
28 | O=c1[nH]c2cc(Cl)ccc2c(=O)n1CCC1CCN(Cc2ccccc2)CC1 | 0.0045 µM
29 | O=C1c2cccnc2C(=O)N1CCC1CCN(Cc2ccccc2)CC1 | 0.013 µM
30 | O=c1c2ccccc2ncn1CCC1CCN(Cc2ccccc2)CC1 | 1.2 µM
31 | O=C1Cc2ccccc2CN1CCC1CCN(Cc2ccccc2)CC1 | 0.017 µM
32 | O=C(c1ccccc1)c1ccc2c(c1)C(=O)N(CCC1CCN(Cc3ccccc3)CC1)C2=O | 0.0024 µM
33 | O=C1c2cccc([N+](=O)[O-])c2C(=O)N1CCC1CCN(Cc2ccccc2)CC1 | 0.009 µM
34 | O=C1Cc2ccccc2C(=O)N1CCC1CCN(Cc2ccccc2)CC1 | 0.023 µM
35 | O=c1c2ccccc2ccn1CCC1CCN(Cc2ccccc2)CC1 | 1.1 µM
36 | O=C1Nc2ccccc2CN1CCC1CCN(Cc2ccccc2)CC1 | 0.013 µM
37 | O=C1CCCCN1CCC1CCN(Cc2ccccc2)CC1 | 0.27 µM
38 | O=C(Nc1cccc2c1C(=O)N(CCC1CCN(Cc3ccccc3)CC1)C2=O)c1ccccc1 | 0.34 µM
39 | O=C1c2ccccc2NCN1CCC1CCN(Cc2ccccc2)CC1 | 0.8 µM
40 | c1ccc(CN2CCC(CCN3CCc4ccccc4C3)CC2)cc1 | 1.6 µM
41 | O=C1c2ccccc2CCN1CCC1CCN(Cc2ccccc2)CC1 | 1 µM
42 | Cc1cc(-c2ccc(Cl)cc2)nnc1NCCN1CCOCC1 | 34 µM
43 | c1ccc(-c2ccc(NCCN3CCOCC3)nn2)cc1 | 1000 µM
44 | c1ccc(-c2ccc(NCCCCN3CCc4ccccc4C3)nn2)cc1 | 15 µM
45 | c1ccc(-c2ccc(NCCN3CCCCC3)nn2)cc1 | 13 µM
46 | c1ccc(-c2cc(-c3ccccc3)c(NCCN3CCOCC3)nn2)cc1 | 260 µM
